{"source": "patent US12617783B2", "about": "“Heterocyclic GLP-1R agonists” (BIOMEA FUSION, INC., priority 2024, dated 2026)", "data": [{"molecular_target": "T1, human GLP-1R (Homo sapiens, UniProt P43220)", "T1 construct": "host or cells: HEK293", "T1 sequence (P43220 24-463)": "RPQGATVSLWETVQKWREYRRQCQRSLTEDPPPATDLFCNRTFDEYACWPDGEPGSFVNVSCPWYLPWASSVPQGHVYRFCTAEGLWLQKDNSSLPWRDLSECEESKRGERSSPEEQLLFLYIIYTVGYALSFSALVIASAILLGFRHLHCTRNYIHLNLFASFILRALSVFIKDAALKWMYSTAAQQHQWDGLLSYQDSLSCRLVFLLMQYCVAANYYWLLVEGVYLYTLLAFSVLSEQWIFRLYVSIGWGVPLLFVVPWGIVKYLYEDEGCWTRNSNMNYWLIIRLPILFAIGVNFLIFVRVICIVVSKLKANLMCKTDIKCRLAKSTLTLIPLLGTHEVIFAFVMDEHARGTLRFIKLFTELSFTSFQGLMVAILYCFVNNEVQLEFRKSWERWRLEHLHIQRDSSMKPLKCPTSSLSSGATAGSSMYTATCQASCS", "test": "GLP-1R cAMP assay (Example B1a, HTRF, 30 min at room temperature)", "assay_type": "cell-based", "conditions": "cAMP accumulation in HEK293 expressing human GLP-1R, no BETP, 30 min room temperature (Method B1a, compounds ID 1-609), Table 1; read-out: EC50", "in_short": "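Competitive HTRF read-out of cAMP after 30 min room-temperature stimulation, BETP absent, of human GLP-1R-HEK293 cells (1,000/well) in HEPES buffer with 500 μM IBMX and 0.1% BSA. Activation normalised to GLP-1(7-37) positive control. EC50 from 4-parameter non-linear regression.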", "units": {"EC50": "nM"}, "values": [{"smiles": "Cc1cc(-n2nc3c(c2-n2ccn(-c4ccc5c(cnn5C)c4F)c2=O)[C@@H]2CC[C@H](C3)N2C(=O)c2cc3sc(C4CCOC(C)(C)C4)nc3cc2C2(c3noc(=O)[nH]3)CC2)cc(C)c1F", "note": "(stereo partly drawn) [Compound 133, 3-[1-[2-(2,2-dimethyltetrahydropyran-4-yl)-6-[(1S,8R)-4-(4-fluoro-3,5-dimethyl-phenyl)-3-[3-(4-fluoro-1-methyl-indazol-5-yl)-2-oxo-imidazol-1-yl]-4,5,11-triazatricyclo[6.2.1.02,6]undeca-2,5-diene-11-carbonyl]-1,3-benzothiazol-5-yl]cyclopropyl]-4H-1,2,4-oxadiazol-5-one]", "EC50": "> 10000"}, {"smiles": "Cc1cc(-n2nc3c(c2-n2ccn(-c4ccc5c(cnn5C)c4F)c2=O)[C@@H]2CC[C@H](C3)N2C(=O)c2cc3cc([C@H]4CCOC4(C)C)ccc3n2[C@@]2(c3noc(=O)[nH]3)C[C@@H]2C)cc(C)c1F", "note": "[Compound 419, 3-[(1S,2S)-1-[5-[(3R)-2,2-dimethyltetrahydrofuran-3-yl]-2-[(1S,8R)-4-(4-fluoro-3,5-dimethyl-phenyl)-3-[3-(4-fluoro-1-methyl-indazol-5-yl)-2-oxo-imidazol-1-yl]-4,5,11-triazatricyclo[6.2.1.02,6]undeca-2,5-diene-11-carbonyl]indol-1-yl]-2-methyl-cyclopropyl]-4H-1,2,4-oxadiazol-5-one]", "EC50": "≥ 10000"}, {"smiles": "Cc1cc(-n2nc3c(c2-n2ccn(-c4ccc5c(cnn5C)c4F)c2=O)[C@@H]2CC[C@H](C3)N2C(=O)c2cc3cc([C@H]4CCOC(C)(C)C4)ccc3n2C2(c3noc(=O)[nH]3)CC2)cc(C)c1F", "note": "[Compound 114, 3-(1-(5-((S)-2,2-dimethyltetrahydro-2H-pyran-4-yl)-2-((4S,7R)-3-(3-(4-fluoro-1-methyl-1H-indazol-5-yl)-2-oxo-2,3-dihydro-1H-imidazol-1-yl)-2-(4-fluoro-3,5-dimethylphenyl)-2,4,5,6,7,8-hexahydro-4,7-epiminocyclohepta [c]pyrazole-9-carbonyl)-1H-indol-1-yl)cyclopropyl)-1,2,4-oxadiazol-5 (4H)-one]", "EC50": 593}, {"smiles": "Cc1cc(-n2nc3c(c2-n2ccn(-c4ccc5c(cnn5C)c4Cl)c2=O)[C@@H]2COC[C@H](C3)N2C(=O)c2cc3cc([C@H]4CCOC(C)(C)C4)ccc3n2[C@@]2(c3noc(=O)[nH]3)C[C@@H]2C)cc(C)c1F", "note": "[Compound 222, 3-((1S,2S)-1-(2-((4R,8S)-3-(3-(4-chloro-1-methyl-1H-indazol-5-yl)-2-oxo-2,3-dihydro-1H-imidazol-1-yl)-2-(4-fluoro-3,5-dimethylphenyl)-2,4,5,7,8,9-hexahydro-4,8-epiminooxocino [5,4-c]pyrazole-10-carbonyl)-5-((S)-2,2-dimethyltetrahydro-2H-pyran-4-yl)-1H-indol-1-yl)-2-methylcyclopropyl)-1,2,4-oxadiazol-5(4H)-one]", "EC50": 177}, {"smiles": "Cc1cc(-n2nc3c(c2-n2ccn(-c4ccc5c(cnn5C)c4F)c2=O)[C@@H]2CCC[C@H](C3)N2S(=O)(=O)c2cc3cc([C@@H]4CCOC5(CC5)C4)ccc3n2[C@@]2(c3noc(=O)[nH]3)C[C@@H]2C)cc(C)c1F", "note": "[Compound 604, 3-[(1S,2S)-1-[2-[[(1S,8R)-4-(4-fluoro-3,5-dimethyl-phenyl)-3-[3-(4-fluoro-1-methyl-indazol-5-yl)-2-oxo-imidazol-1-yl]-4,5,12-triazatricyclo[6.3.1.02,6]dodeca-2,5-dien-12-yl]sulfonyl]-5-[(7R)-4-oxaspiro[2.5]octan-7-yl]indol-1-yl]-2-methyl-cyclopropyl]-4H-1,2,4-oxadiazol-5-one]", "EC50": 839}, {"smiles": "Cc1cc(-n2nc3c(c2-n2ccn(-c4ccc5c(cnn5C)c4F)c2=O)[C@@H]2CC[C@H](C3)N2C(=O)c2cc3cc([C@H]4CCOC5(CC5)C4)ccc3n2[C@]2(c3noc(=O)[nH]3)C[C@@H]2C)cc(C)c1F", "note": "[Compound 528, 3-[(1R,2S)-1-[2-[(1S,8R)-4-(4-fluoro-3,5-dimethyl-phenyl)-3-[3-(4-fluoro-1-methyl-indazol-5-yl)-2-oxo-imidazol-1-yl]-4,5,11-triazatricyclo[6.2.1.02,6]undeca-2,5-diene-11-carbonyl]-5-[(7S)-4-oxaspiro[2.5]octan-7-yl]indol-1-yl]-2-methyl-cyclopropyl]-4H-1,2,4-oxadiazol-5-one]", "EC50": 1440}, {"smiles": "Cc1cc(-n2nc3c(c2-n2ccn(-c4cc(F)c5c(cnn5C)c4F)c2=O)[C@@H]2CC[C@H](C3)N2C(=O)c2cc3cc([C@H]4CCOC(C)(C)C4)ccc3n2[C@@]2(c3noc(=O)[nH]3)C[C@@H]2C)cc(C)c1F", "note": "[Compound 235, 3-[(1S,2S)-1-[2-[(1S,8R)-3-[3-(4,7-difluoro-1-methyl-indazol-5-yl)-2-oxo-imidazol-1-yl]-4-(4-fluoro-3,5-dimethyl-phenyl)-4,5,11-triazatricyclo[6.2.1.02,6]undeca-2,5-diene-11-carbonyl]-5-[(4S)-2,2-dimethyltetrahydropyran-4-yl]indol-1-yl]-2-methyl-cyclopropyl]-4H-1,2,4-oxadiazol-5-one]", "EC50": 459}, {"smiles": "Cc1cc(-n2nc3c(c2-n2ccn(-c4cc(F)c5c(cnn5C)c4F)c2=O)[C@@H]2CC[C@H](C3)N2C(=O)c2cc3cc([C@H]4CCOC(C)(C)C4)ncc3n2[C@@]2(c3noc(=O)[nH]3)C[C@@H]2C)cc(C)c1F", "note": "[Compound 236, 3-[(1S,2S)-1-[2-[(1S,8R)-3-[3-(4,7-difluoro-1-methyl-indazol-5-yl)-2-oxo-imidazol-1-yl]-4-(4-fluoro-3,5-dimethyl-phenyl)-4,5,11-triazatricyclo[6.2.1.02,6]undeca-2,5-diene-11-carbonyl]-5-[(4S)-2,2-dimethyltetrahydropyran-4-yl]pyrrolo[2,3-c]pyridin-1-yl]-2-methyl-cyclopropyl]-4H-1,2,4-oxadiazol-5-one]", "EC50": 785}, {"smiles": "Cc1cc(-n2nc3c(c2-n2ccn(-c4ccc5c(cnn5C)c4F)c2=O)[C@@H]2CC[C@H](C3)N2C(=O)c2cc3cc(C4COC(C)(C)C4)ccc3n2[C@@]2(c3noc(=O)[nH]3)C[C@@H]2C)cc(C)c1F", "note": "(stereo partly drawn) [Compound 418, 3-[(1S,2S)-1-[5-(5,5-dimethyltetrahydrofuran-3-yl)-2-[(1S,8R)-4-(4-fluoro-3,5-dimethyl-phenyl)-3-[3-(4-fluoro-1-methyl-indazol-5-yl)-2-oxo-imidazol-1-yl]-4,5,11-triazatricyclo[6.2.1.02,6]undeca-2,5-diene-11-carbonyl]indol-1-yl]-2-methyl-cyclopropyl]-4H-1,2,4-oxadiazol-5-one]", "EC50": 836}, {"smiles": "CC[C@@H]1C[C@@]1(c1noc(=O)[nH]1)n1c(C(=O)N2[C@@H]3CC[C@H]2c2c(nn(-c4cc(C)c(F)c(C)c4)c2-n2ccn(-c4ccc5c(cnn5C)c4F)c2=O)C3)cc2cc([C@H]3CCOC(C)(C)C3)ccc21", "note": "[Compound 435, 3-[(1R,2R)-1-[5-[(4S)-2,2-dimethyltetrahydropyran-4-yl]-2-[(1S,8R)-4-(4-fluoro-3,5-dimethyl-phenyl)-3-[3-(4-fluoro-1-methyl-indazol-5-yl)-2-oxo-imidazol-1-yl]-4,5,11-triazatricyclo[6.2.1.02,6]undeca-2,5-diene-11-carbonyl]indol-1-yl]-2-ethyl-cyclopropyl]-4H-1,2,4-oxadiazol-5-one]", "EC50": 3870}, {"smiles": "Cc1cc(-n2nc3c(c2-n2ccn(-c4ccc5c(cnn5C)c4F)c2=O)CCN(C(=O)c2cc4cc([C@H]5CCOC(C)(C)C5)ccc4n2[C@@]2(c4noc(=O)[nH]4)C[C@@H]2C)CC3)cc(C)c1F", "note": "[Compound 421, 3-[(1S,2S)-1-[5-[(4S)-2,2-dimethyltetrahydropyran-4-yl]-2-[2-(4-fluoro-3,5-dimethyl-phenyl)-3-[3-(4-fluoro-1-methyl-indazol-5-yl)-2-oxo-imidazol-1-yl]-4,5,7,8-tetrahydropyrazolo[3,4-d]azepine-6-carbonyl]indol-1-yl]-2-methyl-cyclopropyl]-4H-1,2,4-oxadiazol-5-one]", "EC50": "≥ 10000"}, {"smiles": "CC[C@H]1C[C@]1(c1noc(=O)[nH]1)n1c(C(=O)N2[C@@H]3CC[C@H]2c2c(nn(-c4cc(C)c(F)c(C)c4)c2-n2ccn(-c4ccc5c(cnn5C)c4F)c2=O)C3)cc2cc([C@H]3CCOC(C)(C)C3)ccc21", "note": "[Compound 434, 3-[(1S,2S)-1-[5-[(4S)-2,2-dimethyltetrahydropyran-4-yl]-2-[(1S,8R)-4-(4-fluoro-3,5-dimethyl-phenyl)-3-[3-(4-fluoro-1-methyl-indazol-5-yl)-2-oxo-imidazol-1-yl]-4,5,11-triazatricyclo[6.2.1.02,6]undeca-2,5-diene-11-carbonyl]indol-1-yl]-2-ethyl-cyclopropyl]-4H-1,2,4-oxadiazol-5-one]", "EC50": 175}, {"smiles": "Cc1cc(-n2nc3c(c2-n2ccn(-c4ccc5c(cnn5C)c4F)c2=O)[C@@H]2CC[C@H](C3)N2C(=O)c2cc3ccc([C@@H]4CCOC(C)(C)C4)cc3nc2[C@@]2(c3noc(=O)[nH]3)C[C@@H]2C)cc(C)c1F", "note": "[Compound 319, 3-[(1R,2S)-1-[7-[(4R)-2,2-dimethyltetrahydropyran-4-yl]-3-[(1S,8R)-4-(4-fluoro-3,5-dimethyl-phenyl)-3-[3-(4-fluoro-1-methyl-indazol-5-yl)-2-oxo-imidazol-1-yl]-4,5,11-triazatricyclo[6.2.1.02,6]undeca-2,5-diene-11-carbonyl]-2-quinolyl]-2-methyl-cyclopropyl]-4H-1,2,4-oxadiazol-5-one]", "EC50": 469}, {"smiles": "Cc1cc(-n2nc3c(c2-n2ccn(-c4ccc5c(cnn5C)c4F)c2=O)[C@@H]2CC[C@H](C3)N2C(=O)c2cc3cc([C@H]4CCOC(C)(C)C4)ccc3n2[C@@]2(CNC(=O)CO)C[C@@H]2C)cc(C)c1F", "note": "[Compound 241, N-[[(1S,2S)-1-[5-[(4S)-2,2-dimethyltetrahydropyran-4-yl]-2-[(1S,8R)-4-(4-fluoro-3,5-dimethyl-phenyl)-3-[3-(4-fluoro-1-methyl-indazol-5-yl)-2-oxo-imidazol-1-yl]-4,5,11-triazatricyclo[6.2.1.02,6]undeca-2,5-diene-11-carbonyl]indol-1-yl]-2-methyl-cyclopropyl]methyl]-2-hydroxy-acetamide]", "EC50": 641}]}]}
